Values joined by “and” are separate entries in the source; they are usually repeats but may differ in a detail not shown here. Equal entries are not always repeated.
Columns and labels:
wild type GPR17 [1] = biological target: T1, wild type GPR17 (Homo sapiens, UniProt Q13304); test: FAC-MS screening on GPR17-IAM-I column; type: binding; conditions: for t/tc × 100, percentage of breakthrough time with respect to cangrelor / t (min), breakthrough time of the ligand with the immobilized GPR17 / binding class from FAC-MS breakthrough: column GPR17-IAM-I; for t (min), breakthrough time of the ligand with the immobilized GPR17: each 1 µM, single ranking experiment; for binding class from FAC-MS breakthrough: relative to cangrelor, MRS 2179 and UDP
T1 sequence (Q13304 29-367): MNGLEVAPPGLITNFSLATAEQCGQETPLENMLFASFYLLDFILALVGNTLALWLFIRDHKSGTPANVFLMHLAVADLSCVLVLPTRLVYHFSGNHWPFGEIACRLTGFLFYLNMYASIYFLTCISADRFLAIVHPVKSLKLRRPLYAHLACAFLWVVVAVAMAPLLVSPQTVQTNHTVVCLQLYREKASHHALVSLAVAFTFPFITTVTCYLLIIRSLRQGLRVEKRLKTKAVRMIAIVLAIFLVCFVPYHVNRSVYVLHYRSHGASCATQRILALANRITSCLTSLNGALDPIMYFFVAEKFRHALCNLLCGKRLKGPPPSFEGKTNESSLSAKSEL

wild type GPR17 [2] = biological target: T1, wild type GPR17; test: FAC-MS screening on GPR17-IAM-II column; type: binding; conditions: Library A; for breakthrough time GPR17-IAM-II (Table 5): 1 µM each; for breakthrough time GPR17-IAM-II (Table 5) / t (min), breakthrough time: column GPR17-IAM-II (19.5 million cells); for t/tC × 100: column GPR17-IAM-II; for t (min), breakthrough time: single ranking experiment
[3] = biological target: mutated GPR17 receptor (Arg255Ile) (Homo sapiens, UniProt Q13304, R283I); test: FAC-MS screening on mutated GPR17-IAM column; type: binding; conditions: Library A, mutated GPR17-IAM column (19.5 million cells); for breakthrough time Mutated GPR17-IAM (Table 5): 1 µM each
Sequence of mutated GPR17 receptor (Arg255Ile) (Q13304 29-367 R283I): as the sequence (Q13304 29-367) above, with R255I counted along it

[4] = biological target: R255I mutated GPR17 receptor (Homo sapiens, UniProt Q13304, R283I); test: [35S]GTPγS binding functional assay, 1321N1 cells expressing mutated GPR17; type: biochemical; conditions: [35S]GTPγS EC50/IC50, P < 0.05 for antagonists
Sequence of R255I mutated GPR17 receptor (Q13304 29-367 R283I): as the sequence (Q13304 29-367) above, with R255I counted along it

wild type GPR17 [5] = biological target: T1, wild type GPR17; conditions: cited from earlier work
wild type GPR17 [6] = biological target: T1, wild type GPR17; test: [35S]GTPγS binding functional assay, 1321N1 cells expressing wild-type GPR17; type: biochemical
P2Y receptors = conditions: as listed in Table 1; cited from earlier work

| t/tc × 100, percentage of breakthrough time with respect to cangrelor (wild type GPR17 [1]; Library A mixture) | t/tc × 100, percentage of breakthrough time with respect to cangrelor (wild type GPR17 [1]; Library B mixture) | t (min), breakthrough time of the ligand with the immobilized GPR17 (wild type GPR17 [1]; Library B mixture) [min] | breakthrough time GPR17-IAM-II (Table 5) (wild type GPR17 [2]) | t/tC × 100 (wild type GPR17 [2]) [%] | t (min), breakthrough time (wild type GPR17 [2]) | breakthrough time Mutated GPR17-IAM (Table 5) [3] | t (min), breakthrough time [3] [min] | change in affinity toward mutated vs wild type receptor [4] | binding class from FAC-MS breakthrough (wild type GPR17 [1]) | Kd value hypothesized from the chromatographic data (wild type GPR17 [1]; elutes after cangrelor) | pharmacological profile (agonist/antagonist) in [35S]GTPγS binding (wild type GPR17 [6]; wild-type GPR17) | increase of activity on replacement of 3-nitrogen by CH (8 versus 7) (wild type GPR17 [6]; wild-type GPR17, EC50 comparison) [fold] | increase in [35S]GTPγS binding by compound alone (wild type GPR17 [6]; wild-type GPR17) | t/tc × 100, percentage of breakthrough time with respect to cangrelor (wild type GPR17 [1]; Library A mixture, listed as MRS 2179) [%] | SMILES | profile at GPR17 (wild type GPR17 [5]) | pharmacology (P2Y receptors) |
| --- | --- | --- | --- | --- | --- | --- | --- | --- | --- | --- | --- | --- | --- | --- | --- | --- | --- |
| 100.00% | 100.00% | 12.20 | 10.60 | 100.00 | 10.60 min and 10.6 min | 13.16 | 13.16 | significant increase in affinity |  |  |  |  |  |  | CSCCNc1nc(SCCC(F)(F)F)nc2c1ncn2[C@@H]1O[C@H](COP(=O)([O-])OP(=O)([O-])C(Cl)(Cl)P(=O)([O-])[O-])[C@@H](O)[C@H]1O.[Na+].[Na+].[Na+].[Na+] [Cangrelor, cangrelor, reference compound] | antagonists |  |
| 120.37% |  |  | 13.07 | 123.30 | 13.07 min | 16.07 | 16.07 | a trend toward an increased affinity | high binding candidates | subnanomolar | agonist profile |  |  |  | N.N.N.N.Nc1nc(C#Cc2ccccc2)nc2c1ncn2[C@@H]1O[C@H](COP(=O)(O)OP(=O)(O)OP(=O)(O)O)[C@@H](O)[C@H]1O [Compound 4] |  | P2Y1,12antogonist |
|  |  |  | 3.69 | 34.81 | 3.69 min | 4.08 |  |  |  |  |  |  |  |  | CNc1ncnc2c1ncn2[C@@H]1O[C@H](COP(=O)(O)OP(=O)(O)OP(=O)(O)O)[C@@H](O)[C@H]1O.N.N.N.N [Compound 5] |  |  |
| 49.90% |  |  | 5.67 | 53.49 | 5.67 min | 7.08 |  |  |  |  | agonist profile |  |  |  | N.N.N.N.O=P(O)(O)OP(=O)(O)OP(=O)(O)OC[C@H]1O[C@@H](n2cnc3c(NC4CCCC4)ncnc32)[C@H](O)[C@@H]1O [Compound 6] |  |  |
| 37.56% |  |  | 4.50 | 42.45 | 4.50 min and 4.5 min | 5.27 |  |  |  |  | agonist profile |  |  |  | CNc1nc(Cl)nc2c1ncn2[C@@H]1O[C@H](COP(=O)(O)OP(=O)(O)OP(=O)(O)O)[C@@H](O)[C@H]1O.N.N.N.N [Compound 7, 2.-choro-N^6 - methyladenosine Triphospate] |  |  |
| 45.05% |  |  | 4.77 | 45.00 | 4.77 min | 5.79 |  |  |  |  | agonist profile | 7 |  |  | CNc1nc(Cl)cc2c1ncn2[C@@H]1O[C@H](COP(=O)(O)OP(=O)(O)OP(=O)(O)O)[C@@H](O)[C@H]1O.N.N.N.N [Compound 8, 2.-choro-3-deaza-N^6-- methyladenosine Triphospate] |  |  |
| 25.99% |  |  | 3.55 | 33.49 | 3.55 min | 3.54 |  |  |  |  | antagonist profile |  | did not induce any significant increase |  | N.N.Nc1nc(Cl)nc2c1ncn2[C@H]1C[C@H](OP(=O)(O)O)[C@@H](COP(=O)(O)O)O1 [Compound 12] |  |  |
| 16.54% |  |  | 2.79 | 26.32 | 2.79 min | 2.51 | 2.51 | a trend toward a reduced affinity | weak binders |  | agonist profile |  |  |  | N.N.N.O=c1[nH]c(=O)n([C@@H]2O[C@H](COP(=O)(O)OP(=O)(O)O)[C@@H](O)[C@H]2O)cc1I [Compound 13] |  |  |
| 19.67% |  |  | 2.97 | 28.02 | 2.97 min | 2.90 |  |  | weak binders |  |  |  |  |  | CCCCC#Cc1cn([C@@H]2O[C@H](COP(=O)(O)OP(=O)(O)O)[C@@H](O)[C@H]2O)c(=O)[nH]c1=O [Compound 14, 5-Hexynyluridine Diphosphate] |  |  |
| 28.92% | 28% and 27.87% | 3.40 | 3.62 | 34.15 | 3.62 min | 3.47 | 3.47 | significant increase in affinity |  |  |  |  |  | 29 | CNc1ncnc2c1ncn2[C@H]1C[C@H](OP(=O)(O)O)[C@@H](COP(=O)(O)O)O1.N.N [MRS2179, MRS 2179] | antagonists | P2Y1 competitive Antagonist |
| 13% and 13.03% | 12% and 12.30% | 1.50 | 2.69 | 25.38 | 2.69 min | 2.15 | 2.15 | a trend toward a reduced affinity |  |  |  |  |  |  | O=c1ccn([C@@H]2O[C@H](COP(=O)([O-])OP(=O)([O-])[O-])[C@@H](O)[C@H]2O)c(=O)[nH]1.[Na+].[Na+].[Na+] [UDP, uridine diphosphate] | agonist | P2Y agonist |
